Reference: patent publication US12459951B2, “Compounds that interact with RAS superfamily proteins for treatment of cancers, inflammatory diseases, rasopathies, and fibrotic disease” (SHY Therapeutics, LLC, priority 2022, dated 2025)

Assays:
[1] = test system: MiaPaca-2 (expressing KRAS G12C mutant); experiment: Proliferation Assay (Cell Viability Assay); type: cell-based; conditions: Homo sapiens, MIA PaCa-2; read-out: Proliferation in MiaPaca-2: IC50
Method in brief: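 MiaPaca-2 cells (KRAS G12C) were grown in DMEM-high glucose with 10% FBS, seeded at 2000–5000 cells/well and cultured overnight. Compounds were added at 10 μM final, or as serial dilutions for IC50, in 0.3% DMSO/10% FBS for 2–4 days at 37 °C, 5% CO2. Viability was measured with CellTiter 96 Aqueous One and % inhibition calculated.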

KRas G12D mutant = experiment: Ras GTP Binding Domain Inhibition Assay (Ras Superfamily Assay); conditions: 20 μM compound; for KRas G12D mutant + SOS: % inh.: with SOS; for KRas G12D mutant: % inh.: without SOS
Method in brief: (§1)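 Ni-plate capture of His-tagged protein (10-30 μg/mL, o/n 4° C); cpd 20 μM or dilution series, 1% DMSO, 3 h RT ± Sos 556-1049 last h; 100 nM Cy-labelled GTP 45 min RT; 3× wash; fluorescence read.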

KRas wild type = experiment: as above; conditions: 20 μM compound; for KRas wild type + SOS: % inh.: with SOS; for KRas wild type: % inh.: without SOS
Method in brief: as §1

KRas G12C mutant = experiment: as above; conditions: 20 μM compound; for KRas G12C mutant + SOS: % inh.: with SOS; for KRas G12C mutant: % inh.: without SOS
Method in brief: as §1

| IC50 [1] [nM] | KRas G12D mutant + SOS: % inh. (KRas G12D mutant) | KRas G12D mutant: % inh. (KRas G12D mutant) | KRas wild type + SOS: % inh. (KRas wild type) | KRas wild type: % inh. (KRas wild type) | KRas G12C mutant + SOS: % inh. (KRas G12C mutant) | KRas G12C mutant: % inh. (KRas G12C mutant) | SMILES |
| --- | --- | --- | --- | --- | --- | --- | --- |
| > 1000 | 0 (0 = 0% inhibition) | 0 (0 = 0% inhibition) | 0 (0 = 0% inhibition) | 0 (0 = 0% inhibition) | 0 (0 = 0% inhibition) | 0 (0 = 0% inhibition) | COc1cccc(Nc2nc(-c3nccn3C)nn3ccc(C)c23)n1 [Compound 38, N-(6-Methoxypyridin-2-yl)-5-methyl-2-(1-methyl-1H-imidazol-2-yl)pyrrolo[2,1-f][1,2,4]triazin-4-amine] |
| > 1000 | 0 (0 = 0% inhibition) | 0 (0 = 0% inhibition) | 0 (0 = 0% inhibition) | 0 (0 = 0% inhibition) | 0 (0 = 0% inhibition) | 0 (0 = 0% inhibition) | COc1cccc(Nc2nc(-c3nccn3C)nn3ccc(-c4ccccc4)c23)n1 [Compound 40, N-(6-Methoxypyridin-2-yl)-2-(1-methyl-1H-imidazol-2-yl)-5-phenylpyrrolo[2,1-f][1,2,4]triazin-4-amine] |
| > 1000 | A (A = 1-25% inhibition) | 0 (0 = 0% inhibition) | 0 (0 = 0% inhibition) | A (A = 1-25% inhibition) | 0 (0 = 0% inhibition) | 0 (0 = 0% inhibition) | Cn1ccnc1-c1nc(OCCN2CCCC2)c2c(-c3ccccc3)ccn2n1 [Compound 41, 2-(1-Methyl-1H-imidazol-2-yl)-5-phenyl-4-(2-(pyrrolidin-1-yl)ethoxy)pyrrolo[2,1-f][1,2,4]triazine] |
| 510 to 1000 | 0 (0 = 0% inhibition) | 0 (0 = 0% inhibition) | 0 (0 = 0% inhibition) | 0 (0 = 0% inhibition) | 0 (0 = 0% inhibition) | 0 (0 = 0% inhibition) | COc1cccc(-c2cn3nc(-c4nccn4C)nc(N[C@H]4C[C@H](OC)C4)c3c2-c2ccccc2)c1F [Compound 42, 6-(2-Fluoro-3-methoxyphenyl)-N-((1r,3r)-3-methoxycyclobutyl)-2-(1-methyl-1H-imidazol-2-yl)-5-phenylpyrrolo[2,1-f][1,2,4]triazin-4-amine] |
| > 1000 | C (C = 50-75% inhibition) | B (B = 26-49% inhibition) | B (B = 26-49% inhibition) | 0 (0 = 0% inhibition) | B (B = 26-49% inhibition) | 0 (0 = 0% inhibition) | COCCO[C@H]1C[C@H](Nc2nc(-c3nccn3C)nn3cc(-c4cccc(OC)c4F)c(-c4ccccc4)c23)C1 [Compound 44, 6-(2-Fluoro-3-methoxyphenyl)-N-((1r,3r)-3-(2-methoxyethoxy)cyclobutyl)-2-(1-methyl-1H-imidazol-2-yl)-5-phenylpyrrolo[2,1-f][1,2,4]triazin-4-amine] |
| > 1000 | A (A = 1-25% inhibition) | B (B = 26-49% inhibition) | B (B = 26-49% inhibition) | B (B = 26-49% inhibition) | A (A = 1-25% inhibition) | B (B = 26-49% inhibition) | COc1cccc(-c2cn3nc(-c4nccn4C)nc(N[C@H]4C[C@H](OC)C4)c3c2-c2ccccn2)c1F [Compound 45, 6-(2-Fluoro-3-methoxyphenyl)-N-((1r,3r)-3-methoxycyclobutyl)-2-(1-methyl-1H-imidazol-2-yl)-5-(pyridin-2-yl)pyrrolo[2,1-f][1,2,4]triazin-4-amine] |
| > 1000 | A (A = 1-25% inhibition) | A (A = 1-25% inhibition) | 0 (0 = 0% inhibition) | 0 (0 = 0% inhibition) | 0 (0 = 0% inhibition) | 0 (0 = 0% inhibition) | COc1cccc(-c2cn3nc(-c4nccn4C)nc(N[C@H]4C[C@H](OC)C4)c3c2-c2ccn(C)n2)c1F [Compound 47, 6-(2-Fluoro-3-methoxyphenyl)-N-((1r,3r)-3-methoxycyclobutyl)-2-(1-methyl-1H-imidazol-2-yl)-5-(1-methyl-1H-pyrazol-3-yl)pyrrolo[2,1-f][1,2,4]triazin-4-amine] |
| < 150 | C (C = 50-75% inhibition) | C (C = 50-75% inhibition) | B (B = 26-49% inhibition) | C (C = 50-75% inhibition) | A (A = 1-25% inhibition) | C (C = 50-75% inhibition) | COc1cc(Nc2nc(-c3nccn3C)nn3cc(-c4cccnc4)c(C)c23)ncn1 [Compound 48, N-(6-Methoxypyrimidin-4-yl)-5-methyl-2-(1-methyl-1H-imidazol-2-yl)-6-(pyridin-3-yl)pyrrolo[2,1-f][1,2,4]triazin-4-amine] |
| < 150 | B (B = 26-49% inhibition) | C (C = 50-75% inhibition) | 0 (0 = 0% inhibition) | B (B = 26-49% inhibition) | 0 (0 = 0% inhibition) | A (A = 1-25% inhibition) | COc1cc(Nc2nc(-c3nccn3C)nn3cc(-c4ccncc4)c(C)c23)ncn1 [Compound 49, N-(6-Methoxypyrimidin-4-yl)-5-methyl-2-(1-methyl-1H-imidazol-2-yl)-6-(pyridin-4-yl)pyrrolo[2,1-f][1,2,4]triazin-4-amine] |
| < 150 | C (C = 50-75% inhibition) | C (C = 50-75% inhibition) | B (B = 26-49% inhibition) | C (C = 50-75% inhibition) | A (A = 1-25% inhibition) | A (A = 1-25% inhibition) | COc1cc(-c2cn3nc(-c4nccn4C)nc(Nc4cc(OC)ncn4)c3c2C)ccn1 [Compound 50, 6-(2-Methoxypyridin-4-yl)-N-(6-methoxypyrimidin-4-yl)-5-methyl-2-(1-methyl-1H-imidazol-2-yl)pyrrolo[2,1-f][1,2,4]triazin-4-amine] |
| > 1000 | C (C = 50-75% inhibition) | D (D = 76-100% inhibition) | C (C = 50-75% inhibition) | D (D = 76-100% inhibition) | C (C = 50-75% inhibition) | C (C = 50-75% inhibition) | COc1cc(Nc2nc(-c3nccn3C)nn3cc(-c4ccn(C(C)C)n4)c(C)c23)n[nH]1 [Compound 51, 6-(1-Isopropyl-1H-pyrazol-3-yl)-N-(5-methoxy-1H-pyrazol-3-yl)-5-methyl-2-(1-methyl-1H-imidazol-2-yl)pyrrolo[2,1-f][1,2,4]triazin-4-amine] |
| > 1000 | A (A = 1-25% inhibition) | A (A = 1-25% inhibition) | A (A = 1-25% inhibition) | 0 (0 = 0% inhibition) | A (A = 1-25% inhibition) | 0 (0 = 0% inhibition) | Cc1c(-c2ccn(C(C)C)n2)cn2nc(-c3nccn3C)nc(Nc3ccncc3)c12 [Compound 52, 6-(1-Isopropyl-1H-pyrazol-3-yl)-5-methyl-2-(1-methyl-1H-imidazol-2-yl)-N-(pyridin-4-yl)pyrrolo[2,1-f][1,2,4]triazin-4-amine] |
| < 150 | C (C = 50-75% inhibition) | C (C = 50-75% inhibition) | C (C = 50-75% inhibition) | C (C = 50-75% inhibition) | C (C = 50-75% inhibition) | C (C = 50-75% inhibition) | COc1ccnc(Nc2nc(-c3nccn3C)nn3cc(-c4ccn(C(C)C)n4)c(C)c23)n1 [Compound 53, 6-(1-Isopropyl-1H-pyrazol-3-yl)-N-(4-methoxypyrimidin-2-yl)-5-methyl-2-(1-methyl-1H-imidazol-2-yl)pyrrolo[2,1-f][1,2,4]triazin-4-amine] |
| < 150 | C (C = 50-75% inhibition) | D (D = 76-100% inhibition) | C (C = 50-75% inhibition) | C (C = 50-75% inhibition) | C (C = 50-75% inhibition) | D (D = 76-100% inhibition) | Cc1c(-c2ccn(C(C)C)n2)cn2nc(-c3nccn3C)nc(Nc3ncccn3)c12 [Compound 54, 6-(1-Isopropyl-1H-pyrazol-3-yl)-5-methyl-2-(1-methyl-1H-imidazol-2-yl)-N-(pyrimidin-2-yl)pyrrolo[2,1-f][1,2,4]triazin-4-amine] |
